# Reference: patent publication US20230012368A1 (Hoffmann-La Roche Inc., priority 2018, published 2023)
# Counter-ions that a name gives are not always drawn.
# System: Acinetobacter baumannii ATCC 17978
# Test: Antimicrobial susceptibility testing: 90% growth inhibitory concentration (IC90) determination
# Assay type: cell-based
# Settings: 90% growth inhibitory concentration; Acinetobacter baumannii ATCC17978; Iso-Sensitest broth, OD 600 nm over 16h; read-out: ATCC17978 IC90
# In short: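 Growth of the Acinetobacter baumannii strain was followed by optical density at 600 nm every 20 minutes for 16h at 35±2° C. Inoculum was ~5×10^(5) CFU/ml in Iso-Sensitest medium, with twofold compound dilutions (e.g. 50 to 0.097 μM final). The 90% inhibitory concentration was derived in log-phase growth.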
row,SMILES,IC90
1,"CCc1cc(Nc2nccn3c(-c4ccc(Cl)cc4F)cnc23)ccc1C(=O)NCCCN [Example 283, N-(3-aminopropyl)-4-[[3-(4-chloro-2-fluorophenyl)imidazo[1,2-a]pyrazin-8-yl]amino]-2-ethylbenzamide; hydrochloride]",2 µM
2,"CCc1cc(Nc2nccn3c(-c4ccc(Oc5ccc(C(=O)NCCN)cn5)c(F)c4F)cnc23)ccc1C(=O)NC [Example 490, N-(2-aminoethyl)-6-[4-[8-[3-ethyl-4-(methylcarbamoyl)anilino]imidazo[1,2-a]pyrazin-3-yl]-2,3-difluoro-phenoxy]pyridine-3-carboxamide; formic acid]",0.45 µM

# Same assay, conditions: Acinetobacter baumannii, ATCC17978, 16 h, 90% growth inhibitory concentration; Acinetobacter baumannii ATCC17978; Iso-Sensitest broth, OD 600 nm over 16h; read-out: ATCC17978 IC90
row,SMILES,IC90
1,"COc1ccc(-c2cnc3c(Nc4ccc(C(=O)NCCCCCN)c(C)c4)nccn23)cc1 [Example 184, N-(5-aminopentyl)-4-[[3-(4-methoxyphenyl)imidazo[1,2-a]pyrazin-8-yl]amino]-2-methylbenzamide; hydrochlo-ride]",0.22 µM
2,"N#CCOc1ccc(-c2cnc3c(Nc4ccc(C(=O)NCCc5ccncc5)c(Cl)c4)nccn23)c(F)c1Cl [Example 80, 2-chloro-4-[[3-[3-chloro-4-(cyanomethoxy)-2-fluoro-phenyl]imidazo[1,2-a]pyrazin-8-yl]amino]-N-[2-(4-pyridyl)ethyl] benzamide]",0.27 µM
3,"CCc1cc(Nc2nccn3c(-c4ccc(Oc5ncccn5)c(F)c4F)cnc23)ccc1C(=O)NCCCNC(=O)C1CCNCC1 [Example 544, N-(3-(4-((3-(2,3-difluoro-4-(pyrimidin-2-yloxy)phenyl)imidazo[1,2-a]pyrazin-8-yl)amino)-2-ethylbenzamido)propyl)piper-idine-4-carboxamide formate]",0.29 µM
4,"CCc1cc(Nc2nccn3c(-c4ccc(OC)c(F)c4F)cnc23)ccc1C(=O)NCCCCCC(=O)N1CCN[C@H](CO)C1 [Example 162, 4-[[3-(2,3-difluoro-4-methoxy-phenyl)imidazo[1,2-a]pyrazin-8-yl]amino]-2-ethyl-N-[6-[(3S)-3-(hydroxymethyl)piperazin-1-yl]-6-oxo-hexyl]benzamide]",0.08 µM
5,"COc1ccc(-c2cnc3c(Nc4ccc5c(c4)CCN(C)C5=O)nccn23)c(F)c1F [Example 391, 6-[[3-(2,3-difluoro-4-methoxy-phenyl)imidazo[1,2-a]pyrazin-8-yl]amino]-2-methyl-3,4-dihydroisoquinolin-1-one]",0.051 µM
6,"Cc1cc(Nc2nccn3c(-c4ccc(Cl)cc4)cnc23)ccc1C(=O)NCCC1CCNCC1 [Example 189, 4-[[3-(4-chlorophenyl)imidazo[1,2-a]pyrazin-8-yl]amino]-2-methyl-N-(2-piperidin-4-ylethyl)benzamide;hydrochlo-ride]",0.28 µM
7,"CCc1cc(Nc2nccn3c(-c4ccc(OC)c(F)c4F)cnc23)ccc1C(=O)NCCNC(=O)[C@@H](N)CCCNC(=N)N [Example 121, N-[2-[[(2S)-2-amino-5-guanidino-pentanoyl]amino]ethyl]-4-[[3-(2,3-difluoro-4-methoxy-phenyl)imidazo[1,2-a]pyrazin-8-yl]amino]-2-ethyl-benzamide trifluoroacetate]",0.28 µM
8,"CCc1cc(Nc2nccn3c(-c4ccc(OC)c(F)c4F)cnc23)ccc1C(=O)NCCCCCN [Example 418, N-(5-aminopentyl)-4-((3-(2,3-difluoro-4-methoxyphenyl)imidazo[1,2-a]pyrazin-8-yl)amino)-2-ethylbenzamide hydrochloride]",0.033 µM

# The remaining lines, values ahead:
row,IC90,SMILES
1,0.31 µM,"COc1ccc(-c2cnc3c(Nc4ccc(C(=O)NCCCN5CCN(C)C(=O)C5)c(C)c4)nccn23)c(F)c1F [Example 66, 4-((3-(2,3-difluoro-4-methoxyphenyl)imidazo [1,2-a]pyrazin-8-yl)amino)-2-methyl-N-(3-(4-methyl-3-oxopiperazin-1-yl)propyl)benzamide]"
2,1.3 µM,"COc1ccc(-c2cnc3c(Nc4ccc(C(=O)NCC5CNCCO5)c(C)c4)nccn23)cc1F (stereo not drawn) [Example 232, 4-[[3-(3-fluoro-4-methoxyphenyl)imidazo[1,2-a]pyrazin-8-yl]amino]-2-methyl-N-(morpholin-2-ylmethyl)benzamide; hydrochlo-ride]"
3,0.32 µM,"CCc1cc(Nc2nccn3c(-c4ccc(OC)c(F)c4F)cnc23)ccc1C(=O)N[C@@H](C)CN [Example 102, (S)-N-(1-aminopropan-2-yl)-4-((3-(2,3-difluoro-4-methoxyphenyl)imidazo [1,2-a]pyrazin-8-yl)amino)-2-ethylbenzamide dihydrochloride]"
4,0.15 µM,"CCc1cc(Nc2nccn3c(-c4ccc(OC)c(F)c4F)cnc23)ccc1C(=O)N[C@H](C)CNC(=N)C(C)C [Example 502, 4-[[3-(2,3-difluoro-4-methoxyphenyl)imidazo[1,2-a]pyrazin-8-yl]amino]-2-ethyl-#N!-[(2#R!)-1-(2-methylpropanimidoylamino)propan-2-yl]benzamide]"
5,0.22 µM,"CCc1cc(Nc2nccn3c(-c4ccc(OC)c(F)c4F)cnc23)ccc1C(=O)NCC(C)CNC(=O)[C@@H](N)CCNC(=N)N (mixture of isomers) [Example 401, rac-N-(3-((R)-2-amino-4-guanidinobutanamido)-2-methylpropyl)-4-((3-(2,3-difluoro-4-methoxyphenyl)imidazo[1,2-a]pyrazin-8-yl)amino)-2-ethylbenzamide diformate]"
6,5.1 µM,"Cc1cc(Nc2nccn3c(-c4ccc(OC(F)F)cc4)cnc23)ccc1C(=O)NCCN [Example 266, N-(2-aminoethyl)-4-[[3-[4-(difluoromethoxy)phenyl]im-idazo[1,2-a]pyrazin-8-yl]amino]-2-methylbenzamide;hydrochlo-ride]"
7,0.87 µM,"CCc1cc(Nc2nccn3c(-c4ccc(Oc5ccccn5)c(F)c4F)cnc23)ccc1C(=O)NCCNC(=O)[C@H](N)CCCNC(=N)N [Example 422, N-[2-[[(2R)-2-amino-5-guanidino-pentanoyl]amino]ethyl]-4-[[3-[2,3-difluoro-4-(2-pyridyloxy)phenyl]imidazo [1,2-a]pyrazin-8-yl]amino]-2-ethyl-benzamide; formic acid]"
8,0.21 µM,"CCc1cc(Nc2nccn3c(-c4ccc(Oc5ccccn5)c(F)c4F)cnc23)ccc1C(=O)NC [Example 472, 4-[[3-[2,3-difluoro-4-(2-pyridyloxy)phenyl]imidazo [1,2-a]pyrazin-8-yl]amino]-2-ethyl-N-methyl-benzamide]"
9,7.7 µM,"Cc1cc(Nc2nccn3c(-c4ccc(OC(F)F)cc4)cnc23)ccc1C(=O)N[C@H](C)CN [Example 270, N-[(2R)-1-aminopropan-2-yl]-4-[[3-[4-(difluoromethoxy)phenyl]im-idazo[1,2-a]pyrazin-8-yl]amino]-2-methylbenzamide;hydrochlo-ride]"
10,0.82 µM,"CCc1cc(Nc2nccn3c(-c4ccc(Oc5ccccn5)c(F)c4F)cnc23)ccc1C(=O)NCCNC(=O)[C@H](N)CCNC(=N)N [Example 426, N-[2-[[(2R)-2-amino-4-guanidino-butanoyl]amino]ethyl]-4-[[3-[2,3-difluoro-4-(2-pyridyloxy)phenyl]imidazo [1,2-a]pyrazin-8-yl]amino]-2-ethyl-benzamide; formic acid]"
11,0.21 µM,"COc1ccc(-c2cnc3c(Nc4ccc(C(=O)N(C)CCC(=O)N5CCNCC5)c(C)c4)nccn23)cc1F [Example 3, 4-[[3-(3-fluoro-4-methoxy-phenyl)imidazo[1,2-a]pyrazin-8-yl]amino]-N,2-dimethyl-N-(3-oxo-3-piperazin-1-yl-propyl)benzamide]"
